Tests used:
[1] = Plasma free selvigaltin pharmacokinetics, acute 5-day treatment; format: in vivo, rabbit
Source text: The dose employed was established based on pilot pharmacokinetics studies in rabbits performed historically in naïve rabbits (data not shown). This first part of the study allowed the determination of the therapeutic benefits of selvigaltin following acute treatment, thus validating the model for further investigation of this mechanism in a chronic treatment protocol.
After 1 week of standard diet, animals (n = 12) were randomly assigned to the following groups (Table 1A): • Control rabbits continued to receive a regular diet (RD) for 12 weeks and were treated for 5 days (days 1–5, p.o.), during the last week before culling, with either vehicle; RD+1W Veh group] or GB1211 (30 mg/kg; RD + 1W 30 mg group); • Rabbits received a high fat diet (HFD) for 12 weeks (RD implemented with 0.5% cholesterol and 2.5% vegetable fat) and were treated for 5 days (days 1–5, p.o.), during the last week before culling, with either vehicle (HFD + 1W Veh group) or GB1211 (30 mg/kg; HFD + 1W 30 mg group).
Liver homogenates were prepared by homogenisation of 200 mg liver tissue/ml water using a Fisherbrand™ Homogenizer 150 (Thermo Fisher Scientific, Waltham, MA). Plasma or liver homogenate were mixed 1 part matrix with 3 parts acetonitrile prior to centrifugation at 10,000 g for 10 min at 18°C with supernatant diluted x4 with water prior to LC-MS/MS analysis.

[2] = system: high fat diet (HFD) rabbit model of metabolic-associated steatohepatitis (MASH); experiment: HFD rabbit study, prolonged 4-week treatment (weeks 9–12): clinical and biochemical data; format: in vivo, New Zealand White rabbits; conditions: HFD rabbits, mean±SD, n=7
Experimental: After 1 week (W) of RD, the animals (n = 44) were randomly assigned to the following groups (Table 1B): • Control rabbits continued to receive a RD for 12 weeks and were treated with vehicle for 5 days a week (days 1–5, p.o.) during the last 4 weeks before culling (RD + 4W Veh group); • Rabbits received a HFD for 8 weeks and were culled (HFD 8W group); • Rabbits received a HFD for 12 weeks and were treated with vehicle for 5 days a week (days 1–5, p.o.) during the last 4 weeks before culling (HFD+4W Veh group); • Rabbits received a HFD for 12 weeks and were treated with GB1211 (0.3 mg/kg) for 5 days a week (days 1–5, p.o.) during the last 4 weeks before culling (HFD + 4W 0.3 mg group); • Rabbits received a HFD for 12 weeks and were treated with GB1211 (1.0 mg/kg) for 5 days a week (days 1–5, p.o.) during the last 4 weeks before culling (HFD + 4W 1.0 mg group); • Rabbits received a HFD for 12 weeks and were treated with GB1211 (5.0 mg/kg) for 5 days a week (days 1–5, p.o.) during the last 4 weeks before culling (HFD + 4W 5.0 mg group).
The oral glucose tolerance test (OGTT) was performed in accordance with the published method ([Filippi et al., 2009]). Briefly, after an overnight fast, a 50% glucose solution was orally administered to the animals at a dose of 1.5 g/kg. Blood samples were collected before and 15, 30, and 120 min after glucose loading. The incremental area under the curve (iAUC) was calculated by using GraphPad Prism (GraphPad Software, San Diego, CA). Blood samples for analyses were obtained from the marginal ear vein at week 8 or 12, in all groups. All blood samples were collected in standard conditions, before 10 a.m. after an overnight fasting. The blood was immediately centrifuged at 2,000 g for 20 min at 4°C and collected plasma/serum stored at −80°C until assayed. Plasma glucose, total cholesterol, triglycerides, transaminases (AST and ALT), and gamma-glutamyl transferase levels were measured using an automated system (Cobas 8000, Roche Diagnostics International AG, Rotkreuz, Switzerland). Serum alkaline phosphatase, albumin and total bilirubin levels were measured at IDEXX Laboratories (Kornwestheim, Germany), using an automated system (AU480, Beckman-Coulter, Brea, CA) with kinetic and photometric colour tests as per the following methods: alkaline phosphatase - alkaline buffer solution [2-amino-2-methylpropanol (AMP) in conjunction with p-nitrophenyl phosphate (pNPP)], according to the recommendation of the International Federation for Clinical Chemistry; albumin - the reaction of bromocresol green with albumin produces a colour complex, the absorption of which is measured dichromatically ([Doumas et al., 1971]); total bilirubin - a stabilized diazonium salt, 3,5-dichlorophenyldiazonium tetrafluoroborate (DPD), reacts with bilirubin to formazobilirubin, which absorbs at 570 nm ([Tolman and Rej, 1999]).
Mean arterial blood pressure (MAP) was measured by using a polyethylene catheter inserted into a femoral artery at week 8 or 12, after ketamine (10 mg/kg i.v.) and sodium thiopental (50 mg/kg i.v.) sedation.

OC[C@H]1O[C@H](Sc2cncc(Br)c2)[C@H](O)[C@@H](n2cc(-c3cc(F)c(F)c(F)c3)nn2)[C@H]1O [selvigaltin]
steady state systemic plasma drug concentration vs rabbit galectin-3 binding KD ([1]; 30 mg/kg/day p.o., acute treatment): ~40 fold | plasma exposure in HFD+1W 30 mg vs RD+1W 30 mg ([1]; day 4 of treatment, 30 mg/kg p.o.): marginal increase in exposure | ALP ([2]; 0.3 mg/kg p.o. 5 days/week): 69.43 ± 38.22 U/L | ALT ([2]; 0.3 mg/kg p.o. 5 days/week): 45.71 ± 22.51 U/L | AST ([2]; 0.3 mg/kg p.o. 5 days/week): 74.29 ± 51.50 U/L | Albumin ([2]; 0.3 mg/kg p.o. 5 days/week): 38.29 ± 4.42 g/L | Bilirubin ([2]; 0.3 mg/kg p.o. 5 days/week): 17.91 ± 13.00 µM | Glycaemia ([2]; 0.3 mg/kg p.o. 5 days/week): 1.21 ± 0.15 gr/L | Liver Weight ([2]; 0.3 mg/kg p.o. 5 days/week): 3.56 ± 0.28 % of BW | MAP ([2]; 0.3 mg/kg p.o. 5 days/week): 144.91 ± 16.18 mmHg | OGTT (iAUC) ([2]; 0.3 mg/kg p.o. 5 days/week): 165.51 ± 20.71 | Plasma Cholesterol ([2]; 0.3 mg/kg p.o. 5 days/week): 2,277.43 ± 1,078.47 mg/dL | Plasma Triglycerides ([2]; 0.3 mg/kg p.o. 5 days/week): 374.00 ± 619.70 mg/dL | Tissue Triglycerides ([2]; 0.3 mg/kg p.o. 5 days/week): 14.76 ± 2.26 nmol/mg Liver | VAT Weight ([2]; 0.3 mg/kg p.o. 5 days/week): 0.67 ± 0.21 % of BW | γGT ([2]; 0.3 mg/kg p.o. 5 days/week): 30.08 ± 22.90 U/L | ALP ([2]; 1.0 mg/kg p.o. 5 days/week): 72.86 ± 65.69 U/L | ALT ([2]; 1.0 mg/kg p.o. 5 days/week): 58.14 ± 27.72 U/L | AST ([2]; 1.0 mg/kg p.o. 5 days/week): 59.00 ± 37.48 U/L | Albumin ([2]; 1.0 mg/kg p.o. 5 days/week): 38.71 ± 2.63 g/L | Bilirubin ([2]; 1.0 mg/kg p.o. 5 days/week): 9.53 ± 3.73 µM | Glycaemia ([2]; 1.0 mg/kg p.o. 5 days/week): 1.90 ± 0.87 gr/L | Liver Weight ([2]; 1.0 mg/kg p.o. 5 days/week): 3.73 ± 0.32 % of BW | MAP ([2]; 1.0 mg/kg p.o. 5 days/week): 151.23 ± 26.21 mmHg | OGTT (iAUC) ([2]; 1.0 mg/kg p.o. 5 days/week): 189.37 ± 22.39 | Plasma Cholesterol ([2]; 1.0 mg/kg p.o. 5 days/week): 2,182.86 ± 776.09 mg/dL | Plasma Triglycerides ([2]; 1.0 mg/kg p.o. 5 days/week): 157.29 ± 68.66 mg/dL | Tissue Triglycerides ([2]; 1.0 mg/kg p.o. 5 days/week): 14.34 ± 1.35 nmol/mg Liver | VAT Weight ([2]; 1.0 mg/kg p.o. 5 days/week): 0.68 ± 0.24 % of BW | γGT ([2]; 1.0 mg/kg p.o. 5 days/week): 27.71 ± 14.16 U/L | ALP ([2]; 5.0 mg/kg p.o. 5 days/week): 49.57 ± 30.84 U/L | ALT ([2]; 5.0 mg/kg p.o. 5 days/week): 56.43 ± 20.02 U/L | AST ([2]; 5.0 mg/kg p.o. 5 days/week): 62.43 ± 15.80 U/L | Albumin ([2]; 5.0 mg/kg p.o. 5 days/week): 39.29 ± 5.94 g/L | Bilirubin ([2]; 5.0 mg/kg p.o. 5 days/week): 15.45 ± 9.05 µM | Glycaemia ([2]; 5.0 mg/kg p.o. 5 days/week): 1.43 ± 0.35 gr/L | Liver Weight ([2]; 5.0 mg/kg p.o. 5 days/week): 3.56 ± 0.16 % of BW | MAP ([2]; 5.0 mg/kg p.o. 5 days/week): 141.04 ± 30.52 mmHg | OGTT (iAUC) ([2]; 5.0 mg/kg p.o. 5 days/week): 165.00 ± 2.65 | Plasma Cholesterol ([2]; 5.0 mg/kg p.o. 5 days/week): 1,546.43 ± 350.47 mg/dL | Plasma Triglycerides ([2]; 5.0 mg/kg p.o. 5 days/week): 191.43 ± 234.40 mg/dL | Tissue Triglycerides ([2]; 5.0 mg/kg p.o. 5 days/week): 14.51 ± 1.49 nmol/mg Liver | VAT Weight ([2]; 5.0 mg/kg p.o. 5 days/week): 0.87 ± 0.32 % of BW | γGT ([2]; 5.0 mg/kg p.o. 5 days/week): 21.29 ± 13.11 U/L
